From US10280198B2, “Therapeutic agents for reducing parathyroid hormone levels” (KAI PHARMACEUTICALS, INC., priority 2009, dated 2019)
Where two headings read alike, the source gives them in different places. Square brackets hold non-standard residues; d marks the D form. Peptide text beside a SMILES is read from it.

Columns and labels:
[1] = target: T1, human calcium-sensing receptor (CaSR) (Homo sapiens, UniProt P41180); assay: In vitro cell assay in HEK-293 expressing the human calcium-sensing receptor (IP1 production); format: cell-based; conditions: for EC50: Table 5, IP1 production in HEK293 cells expressing human CaSR, eight concentrations in duplicate, read-out: EC50 in CaSR in vitro assay
T1 construct: expressed in transfected cells; host or cells: HEK 293T cells, transiently transfected (lipofectamine 2000); in some cases HEK293 cells stably transfected
T1 sequence (P41180 20-1078): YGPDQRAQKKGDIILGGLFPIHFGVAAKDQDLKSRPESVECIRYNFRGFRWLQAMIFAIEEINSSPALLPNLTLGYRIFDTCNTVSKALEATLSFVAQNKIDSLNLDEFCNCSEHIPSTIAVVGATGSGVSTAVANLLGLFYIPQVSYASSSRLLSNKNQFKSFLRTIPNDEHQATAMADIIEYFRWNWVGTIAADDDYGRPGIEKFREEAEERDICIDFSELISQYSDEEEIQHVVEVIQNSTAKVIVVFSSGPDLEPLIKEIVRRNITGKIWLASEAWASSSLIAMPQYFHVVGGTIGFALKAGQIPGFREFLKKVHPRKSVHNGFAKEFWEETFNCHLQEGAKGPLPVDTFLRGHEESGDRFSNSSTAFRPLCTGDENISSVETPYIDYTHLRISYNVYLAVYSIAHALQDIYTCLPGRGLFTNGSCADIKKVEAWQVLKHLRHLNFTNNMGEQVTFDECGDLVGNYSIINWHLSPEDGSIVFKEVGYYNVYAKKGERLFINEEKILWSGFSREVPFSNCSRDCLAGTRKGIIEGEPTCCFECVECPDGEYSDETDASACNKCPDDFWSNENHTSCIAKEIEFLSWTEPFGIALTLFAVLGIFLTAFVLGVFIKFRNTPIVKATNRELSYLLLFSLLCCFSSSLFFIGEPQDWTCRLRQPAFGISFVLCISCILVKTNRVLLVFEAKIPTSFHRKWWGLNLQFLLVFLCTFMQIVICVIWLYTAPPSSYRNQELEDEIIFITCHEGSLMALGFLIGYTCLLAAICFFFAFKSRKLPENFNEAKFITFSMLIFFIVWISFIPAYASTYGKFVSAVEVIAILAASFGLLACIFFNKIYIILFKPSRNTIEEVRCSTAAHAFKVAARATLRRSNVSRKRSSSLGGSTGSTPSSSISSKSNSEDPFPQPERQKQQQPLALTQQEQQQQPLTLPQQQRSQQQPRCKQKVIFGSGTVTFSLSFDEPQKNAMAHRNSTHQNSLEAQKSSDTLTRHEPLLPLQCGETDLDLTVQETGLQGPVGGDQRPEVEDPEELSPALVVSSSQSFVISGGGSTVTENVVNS
Experimental: The activity of a variety of peptides and conjugates was tested against the human CaSR. These studies were conducted by measuring IP1 production in HEK293 cells that express the human CaSR. Each peptide was tested in eight different concentrations, in duplicates, to establish a dose response curve. Curve fitting was performed using GraphPad Prism. In Table 5, and throughout the specification, residues provided in capital letters are L-amino acids, while lower case letters indicate D-amino acids. “Ac” indicates an acetyl capping group, “NH2” indicates an amide capping group, “Ac-bAla” is an acetylated beta-alanine, “GSH” indicates reduced glutathione, “GS” indicates oxidized glutathione, “PEG” refers to polyethylene glycol, “PEG2” and “PEGS” refer to polyethylene glycol moieties of 2 kDa and 5 kDa, respectively, and “Mpa” refers to mercaptopropionic acid.
The day after, these cells were transfected with human CaSR receptor using lipofectamine 2000 transfection reagent 24 hrs post transfection, cells were seeded in 384 well plates at 8,000 cells/well. […] In some cases, EC50 values were determined by measuring inositol monophosphate production in the HEK293 cells, stably transfected with the human calcium-sensing receptor (see Table 1).
Cells were incubated with compounds at various concentrations (1 mM or 300 μM as the highest and further ½ log serial dilutions) at 37° C. for 1.5 hrs before reaction termination. […] In brief, incubation with the compound was terminated by sequentially adding D2 labeled-IP1 and cryptate-labeled anti-IP1 in lysis buffer and further incubating at room temperature for 60 minutes. […] Non-transfected 293 cells were used as negative control.
IP1 concentrations were calculated from standard curves (generated with Graph Pad Prism ver. 4) using known concentrations of IP1 standards.

[2] = test system: plasma PTH; assay: In vivo PTH lowering after IV bolus in isoflurane-anesthetized normal Sprague Dawley rats; design: species or system rat; conditions: Table 6; normal rats, AUC 1-4 h
Experimental: The peptides were administered intravenously at a dose of 0.5 mg/kg into isoflurane-anesthetized normal Sprague Dawley rats. A control group of rats was treated with saline. Blood was drawn prior to dosing and every hour for 4 hours. Rats were maintained under isoflurane anesthesia for the entire study. […] Percent PTH reduction was calculated according to the following formula: AUCcmpd treated/AUCsaline control*100.
An intravenous (IV) bolus of saline was used as a control. Plasma (K2EDTA) PTH levels were assessed prior to dosing and 1, 2, 3 and 4 hours after dosing. Rats were maintained under isoflurane anesthesia for the entire study. […] In FIG. 2B, PTH is shown as percent of the baseline pre-dose value.
A series of compounds having an L-amino acid residue substituted for a D-amino acid residue were prepared. The compounds were administered as an IV bolus to normal Sprague Dawley rats at a dose of 0.5 mg/kg. An intravenous (IV) bolus of saline was used as a control. […] Rats were maintained under isoflurane anesthesia for the entire study.

[3] = test system: rat peritoneal mast cells; assay: In vitro histamine induction in rat peritoneal mast cells; format: cell-based
Experimental: To further evaluate the relationship between compound structure and histamine release, a series of compounds was prepared and assessed for their ability to trigger induction of histamine in an in vitro assay using rat peritoneal mast cells. In this assay, compounds are incubated at 10 μM for 15 minutes at 37° C. with cells isolated from peritoneal lavage of SD rats. Following incubation, cell medium is collected and histamine is determined.
Accordingly, and as can be appreciated in view of the PTH data and the histamine data described hereinabove, in one embodiment, a compound that has activity to decrease PTH level in a subject in the absence of a histamine response is contemplated. In certain embodiments, absence of a histamine response intends a dose of the compound that produces a less than 10-fold, more preferably 8-fold, still more preferably 5-fold, and even still more preferably 3-fold, increase in histamine, measured in vitro in an assay as described herein, where the fold change is determined based on histamine levels before incubation with the compound and after 15 minutes incubation with compound. In a specific embodiment, the histamine response is determined in an in vitro assay using rat peritoneal mast cells isolated from peritoneal lavage of normal Sprague Dawley rats, and where the fold change is determined based on histamine levels before incubation with the compound and after 15 minutes incubation with compound. In the studies conducted herein, the in vitro evaluation of histamine release was performed using isolated rat peritoneal mast cells isolated by peritoneal lavage using cold HBSS+25 mM HEPES pH 7.4 containing heparin (5 u/mL). Cells were washed twice in stimulation buffer (HBSS+25 mM HEPES pH 7.4) and incubated with 10 μM of compound in stimulation buffer (HBSS+25 mM HEPES pH 7.4) for 15 minutes in a 96-well plate ([…]) at 37° C. Cell supernatant was analyzed for histamine using histamine EIA kit (Cayman #589651).
For in vitro evaluation of histamine release, isolated rat peritoneal mast cells were isolated by performing peritoneal lavage using cold HBSS+25 mM HEPES pH 7.4 containing heparin (5 u/mL). Cells were washed twice in stimulation buffer (HBSS+25 mM HEPES pH 7.4) and incubated with 10 μM of compound in stimulation buffer (HBSS+25 mM HEPES pH 7.4) for 15 minutes in a 96-well plate (10^6/well) at 37° C. Cell supernatant was analyzed for histamine using histamine EIA kit (Cayman #589651).

Molecule | EC50 [1] [µM] | 0.5 mg/kg IV bolus % PTH AUC of saline control [2] [%] | Histamine in vitro Fold change of non-treated at 10 uM [3] [fold] | also measured
CC(=O)N[C@H](CS)C(=O)N[C@H](CCCNC(=N)N)C(=O)N[C@H](CCCNC(=N)N)C(=O)N[C@H](CCCNC(=N)N)C(=O)N[C@H](CCCNC(=N)N)C(=O)N[C@H](CCCNC(=N)N)C(=O)N[C@H](CCCNC(=N)N)C(=O)N[C@H](CCCNC(=N)N)C(N)=O [SEQ ID NO: 7, Ac-crrrrrrr-NH2] (Ac-[dC][dR][dR][dR][dR][dR][dR][dR]-NH2) | 0.6 | – | – | –
CC(=O)N[C@@H](CS)C(=O)N[C@H](C)C(=O)N[C@@H](CCCNC(=N)N)C(=O)N[C@H](CCCNC(=N)N)C(=O)N[C@@H](CCCNC(=N)N)C(=O)N[C@H](C)C(=O)N[C@@H](CCCNC(=N)N)C(N)=O [SEQ ID NO: 44, Ac-CaRrRaR-NH2] | – | – | – | fold decrease in potency relative to Ac-carrrar-NH2 (SEQ ID NO:26) ([1]; human CaSR, HEK293): < 4 fold
CC(=O)N[C@@H](Cc1ccc(O)cc1)C(=O)NCC(=O)N[C@@H](CCCNC(=N)N)C(=O)N[C@@H](CCCCN)C(=O)N[C@@H](CCCCN)C(=O)N[C@@H](CCCNC(=N)N)C(=O)N[C@@H](CCCNC(=N)N)C(=O)N[C@@H](CCC(N)=O)C(=O)N[C@@H](CCCNC(=N)N)C(=O)N[C@@H](CCCNC(=N)N)C(=O)N[C@@H](CCCNC(=N)N)C(N)=O [SEQ ID NO: 48] | 16 | – | – | –
Ac-c(PEG2-C)arrrar-NH2 (XXXXXXX; D-residues) [SEQ ID NO: 57] | 2.3 | – | – | –
CC(=O)N[C@H](CS)C(=O)N[C@H](C)C(=O)N[C@H](CCCNC(=N)N)C(=O)N[C@H](CCCNC(=N)N)C(=O)N[C@H](CCCNC(=N)N)C(=O)N[C@H](C)C(=O)N[C@H](CCCNC(=N)N)C(=O)N[C@H](C)C(=O)N[C@H](CCCNC(=N)N)C(N)=O [SEQ ID NO: 79, Ac-carrrarar-NH2] (Ac-[dC][dA][dR][dR][dR][dA][dR][dA][dR]-NH2) | 13 | – | – | –
CC(=O)N[C@H](CS)C(=O)N[C@H](Cc1ccc(O)cc1)C(=O)NCC(=O)N[C@H](CCCNC(=N)N)C(=O)N[C@H](CCCCN)C(=O)N[C@H](CCCCN)C(=O)N[C@H](CCCNC(=N)N)C(=O)N[C@H](CCCNC(=N)N)C(=O)N[C@H](CCC(N)=O)C(=O)N[C@H](CCCNC(=N)N)C(=O)N[C@H](CCCNC(=N)N)C(=O)N[C@H](CCCNC(=N)N)C(N)=O [SEQ ID NO: 50, Ac-cygrkkrrqrrr-NH2] | 2 | – | – | –
CC(=O)N[C@H](CS)C(=O)N[C@@H](C(=O)N[C@H](CCCNC(=N)N)C(=O)N[C@H](CCCNC(=N)N)C(=O)N[C@H](CCCNC(=N)N)C(=O)N[C@@H](C(=O)N[C@H](CCCNC(=N)N)C(N)=O)C(C)C)C(C)C [SEQ ID NO: 65, Ac-cvrrrvr-NH2] (Ac-[dC][dV][dR][dR][dR][dV][dR]-NH2) | 35 | – | – | –
CC(=O)N[C@H](CS)C(=O)N[C@H](C)C(=O)N[C@H](CCCNC(=N)N)C(=O)N[C@H](CCCNC(=N)N)C(=O)N[C@H](CCCNC(=N)N)C(=O)N[C@H](C)C(=O)N[C@H](CCCNC(=N)N)C(=O)O [SEQ ID NO: 74, Ac-carrrar-OH] | 31 | – | – | –
CC(=O)N[C@H](CS)C(=O)N[C@H](C)C(=O)N[C@H](CCCNC(=N)N)C(=O)N[C@H](CCCNC(=N)N)C(=O)N[C@H](CCCNC(=N)N)C(=O)N[C@@H](C(=O)N[C@H](CCCNC(=N)N)C(N)=O)C(C)C [SEQ ID NO: 87, Ac-carrrvr-NH2] (Ac-[dC][dA][dR][dR][dR][dV][dR]-NH2) | – | 79 | 1.2 | –
CC(=O)N[C@H](CS)C(=O)N[C@H](CCCNC(=N)N)C(=O)N[C@H](CCCNC(=N)N)C(=O)N[C@H](CCC(=O)O)C(=O)N[C@H](CCCNC(=N)N)C(=O)N[C@H](C)C(=O)N[C@H](CCCNC(=N)N)C(N)=O [SEQ ID NO: 107, Ac-crrerar-NH2] (Ac-[dC][dR][dR][dE][dR][dA][dR]-NH2) | – | 56 | – | Histamine in vitro Fold change of non-treated at 10 uM ([3]; Table 9, 10 μM, 15 minutes, 37° C.): 0.6 fold
CC(=O)N[C@H](CS)C(=O)N[C@H](CO)C(=O)N[C@H](CCCNC(=N)N)C(=O)N[C@H](CCCNC(=N)N)C(=O)N[C@H](CCCNC(=N)N)C(=O)N[C@H](C)C(=O)N[C@H](CCCNC(=N)N)C(N)=O [SEQ ID NO: 102, Ac-csrrrar-NH2] (Ac-[dC][dS][dR][dR][dR][dA][dR]-NH2) | – | 13 | 0.9 | –
CC[C@@H](C)[C@@H](NC(=O)[C@@H](CCCNC(=N)N)NC(=O)[C@@H](CCCNC(=N)N)NC(=O)[C@@H](CCCNC(=N)N)NC(=O)[C@@H](C)NC(=O)[C@@H](CS)NC(C)=O)C(=O)N[C@H](CCCNC(=N)N)C(N)=O [SEQ ID NO: 84, Ac-carrrir-NH2] (Ac-[dC][dA][dR][dR][dR][dI][dR]-NH2) | – | 161 | 1.8 | –
CC(=O)N[C@H](CS)C(=O)N[C@H](C)C(=O)N[C@H](CCCNC(=N)N)C(=O)N[C@H](CCCNC(=N)N)C(=O)N[C@H](CCCNC(=N)N)C(=O)N1CCC[C@@H]1C(=O)N[C@H](CCCNC(=N)N)C(N)=O [SEQ ID NO: 88, Ac-carrrpr-NH2] (Ac-[dC][dA][dR][dR][dR][dP][dR]-NH2) | – | 76 | 1.0 | –
